Data as given in patent publication US7820648B2, “Pyrimidine derivatives for the treatment of abnormal cell growth” (Pfizer Inc, priority 2005, dated 2010).

Question: For `CC(=O)N1[C@@H]2CC[C@H]1c1ccc(Nc3ncc(C)c(NC4CC4)n3)cc12`, which melting point is on record?
Answer: 108 to 112 °C
